Reference: patent US8709449B2, “Methods and compositions for improving photodynamic therapy through administration of lipids” (Biolitec Pharma Marketing Ltd, priority 2004, dated 2014)

What was measured:
[1] = mTHPC concentration in tumor, skin and plasma of mice after injection (Trial 1 mTHPC, Trial 2 LMF); assay type: in vivo, mouse
Description: FIG. 1—Graph showing meta-tetra(hydroxyphenyl)chlorin (“mTHPC”) concentration in tumor, skin and blood of a mouse after a dose of 10 μg mTHPC.
FIG. 2—Graph showing mTHPC concentration in tumor, skin and blood of a mouse after a dose of 5 μg mTHPC solubilized in Lipofundin MCT 10% (“LMF”).
This formulation is abbreviated “LMF”.

[2] = Skin fluorescence in a dog after simultaneous injection of mTHPC and Lipofundin; assay type: in vivo; conditions: mTHPC diluted in Lipofundin to 0.75 mg/ml, simultaneous bolus injection
Description: FIG. 4—Graph of results of skin fluorescence in sarcoma and skin of a dog after simultaneous injection of mTHPC and Lipofundin.
In this example, a standard mTHPC solution, having 4 mg of mTHPC per ml of solution (4 mg/ml), was diluted in Lipofundin until the concentration of mTHPC in the mixture is 0.75 mg/ml. The mixture was then injected, thus both the photosensitizer and phospholipids were simultaneously injected. […] As is shown in FIG. 4, after only 6 hours, the fluorescence of the skin was substantially the same as that measured prior to injection, thus the skin was no longer photosensitive after this short amount of time.

[3] = Clinical monitoring of Foscan skin fluorescence by OBS in patients with basal-cell cancer after Foscan PDT; assay type: in vivo, human; conditions: ten patients
Description: Ten patients (6 male, 4 female) with basal-cell cancer (BCC) of the skin were treated with Foscan PDT course having a drug dose of 0.05 mg/kg, a drug-light interval 48 hours, and a 50 J/cm^2 light dose. Immediately after the laser treatment these patients were given intravenous drop infusions of 10% Lipofundin (250 ml). Patients were administered a second infusion of 10% Lipofundin solution (250 ml) the next day.
A group of ten patients (6 male, 4 female) with BCC of the skin, were administered Foscan PDT course having a drug dose of 0.05 mg/kg, a drug-light interval 48 hours, and a 50 J/cm^2 light dose. No 10% Lipofundin infusions were administered post-irradiation.
A computer-based spectrometer Optical Biopsy System (OBS) specially tuned for clinical monitoring of skin fluorescence was used to detect and measure skin fluorescence. The OBS uses a 400 nm diode laser to induce FOSCAN fluorescence (wavelength 655 nm) which is then detected and measured by the OBS spectrometer.
Fluorescence measurements were performed in intact skin of the cheek at certain time points after Foscan injection. Fluorescence monitoring began 2 days after Foscan administration and was continued for 7 weeks following Foscan administration. All measurements were performed by using contact tip (FD-1 Handstuck). Each fluorescence measurement was performed 4 times, all results were recorded, and the average value was used for further analysis.

time of peak tumor concentration of mTHPC ([1]; Trial 1: mTHPC 10 μg per mouse, Trial 2: LMF, 5 μg mTHPC per mouse solubilized in Lipofundin): 24 h | skin concentration in Trial 1 relative to skin concentration after LMF injection ([1]; after 24 hours, Trial 1 dose twice that of Trial 2): almost four times | tumor concentration in Trial 1 after 12 hours relative to peak tumor concentration in Trial 2 ([1]; mTHPC 10 μg per mouse, 12 hours, versus LMF peak): ⅔ | concentration at 24 h ([1]; skin, other: injection (site not specified), Trial 1, mTHPC 10 μg per mouse, after 24 hours): ~260 ng/g | skin fluorescence after injection [2]: rapid decrease in skin fluorescence | time after which skin fluorescence was substantially the same as prior to injection [2]: 6 h | Number of patients exhibiting no detectable skin fluorescence as detected by OBS ([3]; 7 days after Foscan application, Control Group: Foscan 0.05 mg/kg PDT, no Lipofundin infusions): 0 | Number of patients exhibiting no detectable skin fluorescence as detected by OBS ([3]; 7 days after Foscan application, Experimental Group: Foscan 0.05 mg/kg PDT plus two 250 ml 10% Lipofundin infusions after irradiation): 0 | Number of patients exhibiting no detectable skin fluorescence as detected by OBS ([3]; 14 days after Foscan application, Control Group: Foscan 0.05 mg/kg PDT, no Lipofundin infusions): 0 | Number of patients exhibiting no detectable skin fluorescence as detected by OBS ([3]; 14 days after Foscan application, Experimental Group: Foscan 0.05 mg/kg PDT plus two 250 ml 10% Lipofundin infusions after irradiation): 2 | Number of patients exhibiting no detectable skin fluorescence as detected by OBS ([3]; 21 days after Foscan application, Control Group: Foscan 0.05 mg/kg PDT, no Lipofundin infusions): 2 | Number of patients exhibiting no detectable skin fluorescence as detected by OBS ([3]; 21 days after Foscan application, Experimental Group: Foscan 0.05 mg/kg PDT plus two 250 ml 10% Lipofundin infusions after irradiation): 5 | Number of patients exhibiting no detectable skin fluorescence as detected by OBS ([3]; 28 days after Foscan application, Control Group: Foscan 0.05 mg/kg PDT, no Lipofundin infusions): 7 | Number of patients exhibiting no detectable skin fluorescence as detected by OBS ([3]; 28 days after Foscan application, Experimental Group: Foscan 0.05 mg/kg PDT plus two 250 ml 10% Lipofundin infusions after irradiation): 10 | Number of patients exhibiting no detectable skin fluorescence as detected by OBS ([3]; 35 days after Foscan application, Control Group: Foscan 0.05 mg/kg PDT, no Lipofundin infusions): 10 | Number of patients exhibiting no detectable skin fluorescence as detected by OBS ([3]; 35 days after Foscan application, Experimental Group: Foscan 0.05 mg/kg PDT plus two 250 ml 10% Lipofundin infusions after irradiation): 10
Structure (SMILES): Oc1cccc(-c2c3nc(c(-c4cccc(O)c4)c4ccc([nH]4)c(-c4cccc(O)c4)c4nc(c(-c5cccc(O)c5)c5ccc2[nH]5)CC4)C=C3)c1 [mTHPC, meta-tetra(hydroxyphenyl)chlorin]
